Measured values as given in publication PMC2628638, “Catalytic inhibition of topoisomerase II by a novel rationally designed ATP-competitive purine analogue” (BMC Chemical Biology, 2009).

How the values were obtained:
[1] = test system: HCC1937 BRCA1 mutant and HCC1937 BRCA1 reconstituted cells; experiment: Clonogenic growth assay (WST-1, colony counting); assay type: cell-based; conditions: continuous treatment for 9 days, WST-1 and colony numbers
Protocol: HCC1937 BRCA1 mutant and HCC1937 BRCA1 reconstituted breast ductal carcinoma cells were cultured in RPMI-1640 medium supplemented with 10% fetal calf serum, 2 mM L-glutamine, 1 mM sodium pyruvate, 4.5 g/l glucose and 1% (v/v) penicillin/streptomycin. Status of BRCA1 was corroborated by immunoprecipitation using 50 μg nuclear extracts and 1 μg mouse monoclonal antibody MS110 (ab16780, Abcam Inc., Cambridge, MA), which is directed towards the amino-terminus of the protein. Blots were probed with BRCA1 carboxy-terminal specific mouse monoclonal antibody D9 (sc-6954, Santa Cruz Biotechnologies, Santa Cruz, CA) and, following stripping, re-probed with antibody MS110. For assays, 5000 cells in 3 ml medium were seeded per well of 6 well plates in duplicates. The day after, vehicle (DMSO) or compounds were added. After one week medium was exchanged and vehicle or compounds were re-added for an additional two days. To assess proliferation the medium in each well was replaced with 1 ml medium containing 100 μl WST-1 reagent and incubation for 20 minutes at 37°C. Of each sample 110 μl supernatant were transferred into a 96 well plate and the OD was read at 450 nm (filter at 630 nm) on a SpectraMax Plus microtiter plate reader using SoftMax Pro software (Molecular Devices). For background correction, the blank value consisted of 100 μl medium containing 10 μl WST-1. Thereafter, colonies were stained by removing medium, washing cells once with PBS and incubation with 1 ml crystal violet solution for 30 minutes at room temperature. Cells were washed twice with PBS and colonies were counted using an Artec Counter (Model 880, Artec, Dyntatech Laboratories Inc.) with diameter cut-off set to 0.2 mm. Data were expressed as growth or colony numbers relative to vehicle control treatments (100%).

topoisomerase II beta = target: T1, topoisomerase II beta (Homo sapiens, UniProt Q02880); experiment: Affinity precipitation with biotinylated purine analogue 2 from HL-60 nuclear extracts; assay type: binding; conditions: for competition of the interaction of biotinylated purine analogue 2 with topoisomerase II beta: 1 μM biotinylated analogue 2, competitor in excess (10 μM), QAP 1 also at equimolar concentration
T1 construct: endogenous in cells; host or cells: HL-60 nuclear extract
T1 sequence (Q02880 whole entry): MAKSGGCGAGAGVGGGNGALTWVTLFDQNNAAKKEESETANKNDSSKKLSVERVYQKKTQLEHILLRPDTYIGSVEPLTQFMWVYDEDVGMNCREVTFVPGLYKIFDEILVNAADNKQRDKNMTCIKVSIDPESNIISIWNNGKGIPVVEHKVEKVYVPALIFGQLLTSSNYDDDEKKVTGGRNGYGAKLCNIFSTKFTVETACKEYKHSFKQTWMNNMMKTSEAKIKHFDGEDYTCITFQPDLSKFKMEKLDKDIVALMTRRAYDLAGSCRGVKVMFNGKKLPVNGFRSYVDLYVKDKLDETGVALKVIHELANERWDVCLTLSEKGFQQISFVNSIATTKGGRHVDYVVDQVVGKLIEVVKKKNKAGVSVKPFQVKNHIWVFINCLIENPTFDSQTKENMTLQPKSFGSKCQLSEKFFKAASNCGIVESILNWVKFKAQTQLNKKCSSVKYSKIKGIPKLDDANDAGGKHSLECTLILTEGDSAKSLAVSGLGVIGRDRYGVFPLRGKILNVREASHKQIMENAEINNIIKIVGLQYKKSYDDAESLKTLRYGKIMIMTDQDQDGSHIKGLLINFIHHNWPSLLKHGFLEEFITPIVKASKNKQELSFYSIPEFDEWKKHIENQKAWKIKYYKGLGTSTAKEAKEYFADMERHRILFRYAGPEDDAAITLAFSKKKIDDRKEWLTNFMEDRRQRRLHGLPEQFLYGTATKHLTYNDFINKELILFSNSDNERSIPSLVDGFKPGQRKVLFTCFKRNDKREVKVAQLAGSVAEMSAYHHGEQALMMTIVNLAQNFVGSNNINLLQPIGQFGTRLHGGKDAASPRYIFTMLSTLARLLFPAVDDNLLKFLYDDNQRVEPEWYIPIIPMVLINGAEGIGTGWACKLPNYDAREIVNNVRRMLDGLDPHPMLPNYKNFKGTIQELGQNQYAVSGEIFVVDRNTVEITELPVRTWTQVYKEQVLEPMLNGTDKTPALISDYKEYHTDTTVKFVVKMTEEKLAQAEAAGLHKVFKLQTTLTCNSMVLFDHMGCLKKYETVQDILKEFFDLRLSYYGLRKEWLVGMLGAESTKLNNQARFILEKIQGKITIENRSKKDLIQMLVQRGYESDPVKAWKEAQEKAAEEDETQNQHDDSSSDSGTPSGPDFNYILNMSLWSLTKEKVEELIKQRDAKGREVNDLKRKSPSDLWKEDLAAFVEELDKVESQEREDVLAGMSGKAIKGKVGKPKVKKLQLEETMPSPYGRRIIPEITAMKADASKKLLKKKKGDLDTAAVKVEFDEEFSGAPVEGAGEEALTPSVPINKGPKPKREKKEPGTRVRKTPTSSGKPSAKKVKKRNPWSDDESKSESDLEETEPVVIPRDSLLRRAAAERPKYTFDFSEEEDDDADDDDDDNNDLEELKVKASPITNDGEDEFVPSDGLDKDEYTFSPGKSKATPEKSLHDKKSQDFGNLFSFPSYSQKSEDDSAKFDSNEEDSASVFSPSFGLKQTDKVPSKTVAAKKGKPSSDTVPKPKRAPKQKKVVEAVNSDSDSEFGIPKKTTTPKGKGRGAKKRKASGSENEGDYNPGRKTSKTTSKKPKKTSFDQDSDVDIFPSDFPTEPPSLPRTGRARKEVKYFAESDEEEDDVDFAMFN
Protocol: (§1) Topoisomerase II α and β were affinity precipitated with biotinylated inhibitor as follows. Exponentially growing HL-60 cells were collected on ice and incubated with hypotonic buffer (10 mM HEPES pH 7.5, 1.5 mM MgCl2, 10 mM KCl, 0.5 mM DTT, 0.5 mM PMSF, 1× protease inhibitor cocktail (Complete Mini, Roche Diagnostics GmbH)) for 15 minutes, then 0.6% v/v NP-40 was added and cells were disrupted using a Dounce homogenizer. Lysates were transferred to 1.5 ml Protein LoBind Eppendorf tubes and nuclei were collected after centrifugation at 8000 rpm for 10 minutes and washed twice with hypotonic buffer. To extract and release chromatin associated topoisomerase II nuclei were incubated for 30 minutes in DNAse buffer (20 mM Tris HCl pH 7.5, 5 mM MgCl2, 1 mM CaCl2, 25 mM NaCl, 0.5 mM EDTA, 1% NP-40, 1 mM DTT, 1 × protease inhibitor cocktail, 0.1 mM PMSF) containing 40 U DNAse I (Roche Diagnostics GmbH) followed by addition of twice concentrated nuclear extraction buffer (20 mM HEPES pH 7.5, 3 mM MgCl2, 20 mM KCl, 50 mM β-glycerophosphate, 840 mM NaCl, 1 mM EDTA, 50 mM PNPP, 1 mM DTT, 1 mM PMSF) and rotation for 1 h in the coldroom. The soluble fraction was obtained following centrifugation at 13000 rpm for 15 minutes. 25 μg nuclear extract were used for the affinity precipitation. The salt concentration was adjusted to 150 mM with nuclear extraction buffer (without NaCl) and the sample volume was toped off to 200 μl with precipitation buffer (50 mM HEPES pH 7.4, 150 mM NaCl, 25 mM β-glycerophosphate, 25 mM NaF, 5 mM EGTA, 1 mM EDTA, 15 mM PPI, 1 mM PMSF). Compounds were preincubated for 30 minutes prior addition of biotinylated purine analogue 2 for 2 h. Streptavidin agarose beads (Novagen, 69203) were washed twice with PBS, blocked for 30 minutes with PBS containing 1% BSA, washed twice with PBS and finally with precipitation buffer. 40 μl equilibrated streptavidin agarose beads were added to the sample and incubation was continued for 1 h. Beads were pelleted by centrifugation at 7000 rpm for 5 minutes and washed thrice with precipitation buffer. During the last wash the beads were transferred to a new tube and the bound fraction was released by boiling for 5 minutes in Laemmli sample buffer. Topoisomerase II α and β were detected by Western blot as described below.

topoisomerase II alpha [2] = target: T2, topoisomerase II alpha (Homo sapiens, UniProt P11388); experiment: as above; assay type: binding; set-up: endogenous in cells; host or cells: HL-60 nuclear extract; conditions: for competition of the interaction of biotinylated purine analogue 2 with topoisomerase II alpha: 1 μM biotinylated analogue 2, competitor in excess (10 μM), QAP 1 also at equimolar concentration
T2 sequence (P11388 whole entry): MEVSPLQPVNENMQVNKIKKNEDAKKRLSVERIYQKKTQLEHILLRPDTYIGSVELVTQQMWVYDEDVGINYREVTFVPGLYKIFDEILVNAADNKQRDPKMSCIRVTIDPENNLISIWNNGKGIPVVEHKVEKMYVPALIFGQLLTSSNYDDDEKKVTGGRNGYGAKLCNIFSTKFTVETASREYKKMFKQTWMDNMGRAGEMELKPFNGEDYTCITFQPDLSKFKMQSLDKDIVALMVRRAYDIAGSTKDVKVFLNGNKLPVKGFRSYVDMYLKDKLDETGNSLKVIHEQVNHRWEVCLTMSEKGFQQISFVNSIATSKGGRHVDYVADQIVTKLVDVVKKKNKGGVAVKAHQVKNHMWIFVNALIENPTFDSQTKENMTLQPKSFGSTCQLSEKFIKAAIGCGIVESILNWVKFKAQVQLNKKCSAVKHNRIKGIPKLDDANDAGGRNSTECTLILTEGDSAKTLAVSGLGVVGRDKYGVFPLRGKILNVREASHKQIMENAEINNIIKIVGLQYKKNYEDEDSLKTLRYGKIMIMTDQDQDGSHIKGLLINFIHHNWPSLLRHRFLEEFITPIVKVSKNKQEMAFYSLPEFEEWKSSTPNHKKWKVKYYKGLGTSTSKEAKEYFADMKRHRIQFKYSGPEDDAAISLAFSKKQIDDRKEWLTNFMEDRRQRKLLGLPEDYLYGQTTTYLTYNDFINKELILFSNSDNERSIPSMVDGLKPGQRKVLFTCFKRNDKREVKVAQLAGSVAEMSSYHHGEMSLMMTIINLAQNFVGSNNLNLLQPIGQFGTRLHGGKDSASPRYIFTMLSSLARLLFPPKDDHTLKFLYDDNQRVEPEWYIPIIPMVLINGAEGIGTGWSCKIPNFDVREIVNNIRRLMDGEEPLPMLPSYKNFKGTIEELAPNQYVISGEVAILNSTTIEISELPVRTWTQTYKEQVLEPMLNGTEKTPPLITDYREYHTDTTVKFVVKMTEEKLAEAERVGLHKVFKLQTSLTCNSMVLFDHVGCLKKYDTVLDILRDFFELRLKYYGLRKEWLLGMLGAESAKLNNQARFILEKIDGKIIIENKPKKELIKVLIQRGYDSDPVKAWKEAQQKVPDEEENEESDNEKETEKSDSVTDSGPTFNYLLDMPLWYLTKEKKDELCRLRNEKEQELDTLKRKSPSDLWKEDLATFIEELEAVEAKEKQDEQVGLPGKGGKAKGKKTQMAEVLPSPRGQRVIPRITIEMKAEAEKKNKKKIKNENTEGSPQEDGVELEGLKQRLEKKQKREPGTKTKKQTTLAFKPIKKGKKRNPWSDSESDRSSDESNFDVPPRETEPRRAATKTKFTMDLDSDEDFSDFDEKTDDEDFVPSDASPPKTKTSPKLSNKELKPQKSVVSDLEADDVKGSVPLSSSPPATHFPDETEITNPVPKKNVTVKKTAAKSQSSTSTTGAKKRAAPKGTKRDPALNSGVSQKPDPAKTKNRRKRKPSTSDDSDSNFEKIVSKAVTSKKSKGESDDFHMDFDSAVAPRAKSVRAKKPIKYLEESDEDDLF
Protocol: as §1

topoisomerase II alpha [3] = target: T2, topoisomerase II alpha; experiment: DNA-dependent ATPase assay (malachite green); assay type: biochemical; set-up: screened in an ATPase assay using purified full length tagged human topoisomerase II alpha; made in house; host or cells: Sf21 insect cells, baculovirus (pFastBac1)
Protocol: DNA-dependent ATP hydrolysis of human topoisomerase II α was monitored by measuring the production of inorganic phosphate using acidic molybdate and malachite green. Specific ATPase activity of every batch was tested in a time-course to determine optimal incubation times and enzyme concentrations within the linear range of the assay. Reactions thus contained 10 – 40 nM topoisomerase II (dimer concentration) in reaction buffer (10 mM Tris HCl pH 7.5, 175 mM KCl, 0.1 mM EDTA, 5 mM MgCl2, 2 mM DTT, 2.5% glycerol and 1.7 nM supercoiled pUC18). The specific activity of the human topoisomerase II α enzyme measured in the ATPase assay was 0.24 μmol PO4·min^-1·mg^-1. […] Compounds at the indicated concentrations were added as serial dilutions prepared in DMSO and preincubated for 10 minutes at 37°C on an orbital shaker. Reactions were started by the addition of 400 μM ATP (Sigma, catalog number A2383) and allowed to proceed for 30 minutes. Reactions were terminated by the addition of 200 μl malachite green reagent and the OD was read immediately at 630 nm on a SpectraMax Plus microtiter plate reader using SoftMax Pro software (Molecular Devices). For kinetic analysis, reactions were carried out in duplicate as described above either in the presence of vehicle (DMSO) or QAP 1. Following a preincubation for 5 minutes, ATP was added at the indicated concentrations to start the reactions, which were allowed to proceed for 17 minutes before stopping and reading as above. From these values the OD values obtained at each respective ATP concentration without enzyme were subtracted for background correction. […] A compromise was found by carrying out the competition experiments with a single concentration of the inhibitor that gave a good inhibition of enzyme activity while keeping a measurable signal. The equations used to fit these experiments are: […]
Each competition experiment was fitted (Grafit version 5.04 – Erithacus Software) with these 3 equations and the models that gave unrealistic inhibition constants (above 10 mM) and/or large standard errors (similar to the value of the fitted parameter) were rejected. Then, the F-test was carried out to identify the best fitting model. An alternative method was used to determine the mode of action of the inhibitor. Dose-response experiments were carried out at different ATP concentrations and the corresponding IC50s determined. According to the Cheng-Prusoff equation for linear competitive inhibition: […]
The IC50 of a competitive inhibitive inhibitor should increase in a linear fashion with the concentration of ATP. The measured IC50s were then plotted in function of the ATP concentrations and linear regression analyses were carried out. […] Mean Km and Vmax values were calculated from two independent experiments.

[4] = 1 μM biotinylated compound, HL-60 nuclear extracts

Compound: C=CCNC1=C2C[C@@H](C)C[C@H](OC)[C@H](O)[C@@H](C)/C=C(\C)[C@H](OC(N)=O)[C@@H](OC)/C=C\C=C(/C)C(=O)NC(=CC1=O)C2=O [17-AAG, reference compound]
- sensitivity of BRCA1 mutant versus BRCA1 reconstituted HCC1937 cells [1]: to a similar extent

Compound: CCc1nc2c(NC(C)(C)C)nc(Nc3ccc4nc(OCCN5CCN(C(=O)CCOCCOCCOCCNC(=O)CCCC[C@@H]6SC[C@@H]7NC(=O)N[C@@H]76)CC5)sc4c3)nc2[nH]1 [purine analogue 2]
- pull down of topoisomerase II beta by biotinylated compound (topoisomerase II beta; [4]): pull down
- pull down of topoisomerase II alpha by biotinylated compound (topoisomerase II alpha [2]; [4]): pull down

Compound: CCc1nc2c(NC(C)(C)C)nc(Nc3ccc4ncsc4c3)nc2[nH]1 [purine analogue 3]
- competition of the interaction of biotinylated purine analogue 2 with topoisomerase II beta (topoisomerase II beta): lost
- IC50 (topoisomerase II alpha [3]; full length tagged human topoisomerase II alpha, 400 μM ATP): 432 ± 30 nM
- competition of the interaction of biotinylated purine analogue 2 with topoisomerase II alpha (topoisomerase II alpha [2]): lost

Compound: CCc1nc2c(N3CCSCC3)nc(Nc3ccc4ncsc4c3)nc2[nH]1 [purine analogue 4]
- competition of the interaction of biotinylated purine analogue 2 with topoisomerase II beta (topoisomerase II beta): not
- activity in the ATPase assays (topoisomerase II alpha [3]; result in words): inactive
- competition of the interaction of biotinylated purine analogue 2 with topoisomerase II alpha (topoisomerase II alpha [2]): not
